Calls of active or inactive are those of the source. The calls are words filed in the database; no cut-off is given here.
Key:
Format in all cases: nucleic-acid assay
CTG repeat expansion [1] = assay: Binding affinity to dsDNA CTG/CTG triad (unknown origin) assessed as melting temperature at 50 uM […]
CTG repeat expansion [2] = assay: Binding affinity to dsDNA CTG/CTG triad (unknown origin) assessed as change in melting temperature by […]
CGG repeat expansion [3] = assay: Binding affinity to dsDNA CGG/CGG triad (unknown origin) assessed as increase in band intensity at 50 uM by circular dichroism analysis
CTG repeat expansion [4] = assay: Binding affinity to dsDNA CTG/CTG motif (unknown origin) assessed as gibbs free energy change measured every 2 mins by ITC analysis
CCG repeat expansion [5] = assay: Binding affinity to dsDNA CCG/CCG motif (unknown origin) assessed as melting temperature at 50 uM […] (reference value: 21.6 +/-0.2 degreeC)
CTG repeat expansion [6] = assay: Binding affinity to dsDNA CTG/CTG motif (unknown origin) assessed as change in enthalpy measured every 2 mins by ITC analysis
CTG repeat expansion [7] = assay: Binding affinity to dsDNA CTG/CTG motif (unknown origin) assessed as change in entropy measured every 2 mins by ITC analysis
CTG repeat expansion [8] = assay: Binding affinity to dsDNA CTG/CTG triad (unknown origin) assessed as increase in band intensity by circular dichroism analysis; conditions: dose 20-60 µM
CAG repeat expansion [9] = assay: Binding affinity to dsDNA CAG/CAG motif (unknown origin) assessed as change in melting temperature at 50 uM […]
CGG repeat expansion [10] = assay: Binding affinity to dsDNA CGG/CGG motif (unknown origin) assessed as change in melting temperature at 50 uM […]
CGG repeat expansion [11] = assay: Binding affinity to dsDNA CGG/CGG motif (unknown origin) assessed as melting temperature at 50 uM […] (reference value: 28.2 +/-0.3 degreeC)
TTT/ATA motif [12] = assay: Binding affinity to dsDNA TTT/ATA motif (unknown origin) assessed as melting temperature at 50 uM […] (reference value: 16.6 +/-0.2 degreeC)
TTT/ATA motif [13] = assay: Binding affinity to dsDNA TTT/ATA motif (unknown origin) assessed as change in melting temperature at 50 uM […]
CAG repeat expansion [14] = assay: Binding affinity to dsDNA CAG/CAG motif (unknown origin) assessed as melting temperature at 50 uM […] (reference value: 21.8 +/-0.2 degreeC)
CCG/CGG motif [15] = assay: Binding affinity to dsDNA CCG/CGG motif (unknown origin) assessed as melting temperature at 50 uM […] (reference value: 44.8 +/-0.5 degreeC)
CTG repeat expansion [16] = assay: Binding affinity to dsDNA CTG/CTG motif (unknown origin) assessed as dissociation constant measured every 2 mins by ITC analysis
CAG/CTG motif [17] = assay: Binding affinity to dsDNA CAG/CTG motif (unknown origin) assessed as change in melting temperature at 50 uM […]
CCG repeat expansion [18] = assay: Binding affinity to dsDNA CCG/CCG triad (unknown origin) assessed as increase in band intensity at 50 uM by circular dichroism analysis
CAG/CTG motif [19] = assay: Binding affinity to dsDNA CAG/CTG motif (unknown origin) assessed as melting temperature at 50 uM […] (reference value: 38.5 +/-0.4 degreeC)
CAG repeat expansion [20] = assay: Binding affinity to dsDNA CAG/CAG triad (unknown origin) assessed as increase in band intensity at 50 uM by circular dichroism analysis
CTG repeat expansion [21] = assay: Binding affinity to dsDNA CTG/CTG triad (unknown origin) assessed as decrease in imino proton signals by NMR analysis
CTG repeat expansion [22] = assay: Binding affinity to dsDNA CTG/CTG triad (unknown origin) assessed as increase in band intensity at 50 uM by circular dichroism analysis
CCG/CGG motif [23] = assay: Binding affinity to dsDNA CCG/CGG motif (unknown origin) assessed as change in melting temperature at 50 uM […]
CCG repeat expansion [24] = assay: Binding affinity to dsDNA CCG/CCG motif (unknown origin) assessed as change in melting temperature at 50 uM […]
CTG repeat expansion [25] = assay: Binding affinity to (CTG)9 repeat DNA (unknown origin) assessed as increase in band intensity at 20 to 60 uM by circular dichroism analysis; conditions: dose 20-60 µM
CGG repeat expansion [26] = assay: Binding affinity to dsDNA CGG/CGG triad (unknown origin) measured upto 50 mins by ITC analysis

## NCCCOC(=O)Nc1cc2ccccc2cn1
CTG repeat expansion [1]
  Tm: 28.1 °C
CTG repeat expansion [2]
  ΔTm: 0.3 °C

## Cc1ccc2ccc(NC(=O)OCCCNCCCOC(=O)Nc3cc4ccccc4cn3)nc2n1
CGG repeat expansion [3]
  Activity: inactive
CTG repeat expansion [4]
  deltaG: -7.8 kcal/mol
CCG repeat expansion [5]
  Tm: 24.1 °C
CTG repeat expansion [6]
  deltaH: -37.8 kcal/mol
CTG repeat expansion [7]
  -TdeltaS: 29.2 kcal/mol
CTG repeat expansion [8]
  Activity: Dose-dependent-effect
CAG repeat expansion [9]
  ΔTm: 2.8 °C
CGG repeat expansion [10]
  ΔTm: 3.9 °C
CGG repeat expansion [11]
  Tm: 32.1 °C
CTG repeat expansion [1]
  Tm: 33.6 °C
TTT/ATA motif [12]
  Tm: 20.1 °C
TTT/ATA motif [13]
  ΔTm: 3.5 °C
CAG repeat expansion [14]
  Tm: 24.6 °C
CCG/CGG motif [15]
  Tm: 44.8 °C
CTG repeat expansion [16]
  Kd: 1900 nM
CAG/CTG motif [17]
  ΔTm: -0.2 °C
CCG repeat expansion [18]
  Activity: inactive
CAG/CTG motif [19]
  Tm: 38.2 °C
CAG repeat expansion [20]
  Activity: inactive
CTG repeat expansion [21]
  Activity: Active
CTG repeat expansion [2]
  ΔTm: 5.8 °C
CTG repeat expansion [22]
  Activity: Active
CCG/CGG motif [23]
  ΔTm: 0 °C
CCG repeat expansion [24]
  ΔTm: 2.5 °C
CTG repeat expansion [25]
  Activity: Active
CGG repeat expansion [26]
  Activity: Active

## Cc1ccc2ccc(NC(=O)OCCCNCCCOC(=O)Nc3ccc4ccc(C)nc4n3)nc2n1
CTG repeat expansion [1]
  Tm: 27.9 °C
CTG repeat expansion [2]
  ΔTm: 0.1 °C

## Cc1ccc2ccc(NC(=O)OCCCNCCCOC(=O)Nc3ccc4ccccc4n3)nc2n1
CTG repeat expansion [1]
  Tm: 27.7 °C
CTG repeat expansion [2]
  ΔTm: -0.1 °C

## Cc1ccc2ccc(NC(=O)OCCCN)nc2n1
CTG repeat expansion [1]
  Tm: 28 °C
CTG repeat expansion [2]
  ΔTm: 0.2 °C

## Cc1ccc2ccc(NC(=O)OCCCNCCCOC(=O)Nc3ccccn3)nc2n1
CTG repeat expansion [1]
  Tm: 27.8 °C
CTG repeat expansion [2]
  ΔTm: 0 °C

Reference: ChEMBL document CHEMBL6083241, “The heterodimer of 2-amino-1,8-naphthyridine and 3-aminoisoquinoline binds to the CTG/CTG triad via hydrogen bonding” (Bioorg Med Chem Lett, 2024)
